Measured values: PMC3082971 (Biochemistry, 2011)

Target: T1, hVDAC2 (Homo sapiens, UniProt P45880)
T1 sequence (P45880 2-294): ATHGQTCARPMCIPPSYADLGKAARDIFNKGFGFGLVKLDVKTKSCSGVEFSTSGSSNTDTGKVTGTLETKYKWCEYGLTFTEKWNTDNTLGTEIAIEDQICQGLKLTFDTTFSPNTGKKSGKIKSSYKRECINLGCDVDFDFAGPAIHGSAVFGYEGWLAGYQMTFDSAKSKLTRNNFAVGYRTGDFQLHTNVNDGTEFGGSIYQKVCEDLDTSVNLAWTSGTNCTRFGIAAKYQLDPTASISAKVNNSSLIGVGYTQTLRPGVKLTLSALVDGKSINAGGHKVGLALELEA
Assay: biochemical

CCOc1ccccc1-n1c(C(C)N2CCN(C(=O)COc3ccc(Cl)cc3)CC2)nc2ccccc2c1=O (stereo not shown) [erastin]
EC50: 52.6 ± 28.2 nM
